Paper PMC11944621, “Synthesis, Molecular Simulation, DFT, and Kinetic Study of Imidazotriazole-Based Thiazolidinone as Dual Inhibitor of Acetylcholinesterase and Butyrylcholinesterase Enzymes” (Pharmaceuticals, 2025)
Like-named read-outs stand apart in the source and are kept apart here.

What was measured:
BChE [1] = target: T1, BChE (Homo sapiens, UniProt P06276); conditions: cited from earlier work
AChE [2] = target: T2, AChE (Homo sapiens, UniProt P22303); conditions: previously reported thiazolidinone analog; read-out: IC50 against AChE; cited from earlier work
AChE [3] = target: T2, AChE; experiment: biochemical; conditions: in vitro, triplicate; read-out: AchE IC50 ± SEM
Protocol: (§1) With some modifications, inhibitory potential against AChE and BuChE was investigated according to the reported protocol. […] Added test compound (well-1) with volume of 10 µL and a concentration of 0.5 mM followed by the addition of an enzyme of 10 µL (0.005 unit well-1). Pre-incubation of substances at 37 °C for 10 min was achieved. Reaction was started by adding 10 µL of 0.5 mM well-1 substrate (acetylthiocholine iodide/ butyrylthiochloine chloride) followed by addition of 10 µL DTNB (0.5 mM well-1). […] All experiments were performed with their respective controls in triplicate. […] The % inhibition was computed using the following equation:Inhibition (%) = Control − Test/control × 100 […]
(§2) S.2 AChE and BuChE assay protocols
(§3) With a little bit modification, inhibitory potential against AChE and BuChE was investigated according to the reported protocol. The total volume of the reaction mixture was kept at 100 µL, […]
(§4) compound (well-1) with volume of 10µL and a concentration of 0.5mM followed by the addition of an enzyme of 10 µL (0.005 unit well-1). Pre-incubation of substances at 37 °C for 10 min was achieved. Reaction was started by addition of 10µL of 0.5mM well-1 substrate (acetylthiocholine iodide/ butyrylthiochloine chloride) followed by addition of 10µL DTNB (0.5mM well-1).
(§5) Synergy HT, BioTek, US. All experiments were done with their respective controls in triplicate.
(§6) The % inhibition was computed using the following equation
(§7) Inhibition (%) = Control – Test/control x 100
(§8) Control EZ-Fit Enzyme kinetics software (Perrella Scientific Inc. Amherst, USA) was used for the calculation of IC50 values. […]

BChE [4] = target: T1, BChE; experiment: biochemical; conditions: in vitro, triplicate; read-out: BChE IC50 ± SEM
Protocol: as §1, §2, §3, §4, §5, §6, §7, §8

enzyme = experiment: Enzyme kinetics (mode of inhibition); format: biochemical
Excerpt: This is an in vitro approach, which measures the initial inhibition rate with the change in the inhibitor concentration.

T1 sequence (P06276 29-602): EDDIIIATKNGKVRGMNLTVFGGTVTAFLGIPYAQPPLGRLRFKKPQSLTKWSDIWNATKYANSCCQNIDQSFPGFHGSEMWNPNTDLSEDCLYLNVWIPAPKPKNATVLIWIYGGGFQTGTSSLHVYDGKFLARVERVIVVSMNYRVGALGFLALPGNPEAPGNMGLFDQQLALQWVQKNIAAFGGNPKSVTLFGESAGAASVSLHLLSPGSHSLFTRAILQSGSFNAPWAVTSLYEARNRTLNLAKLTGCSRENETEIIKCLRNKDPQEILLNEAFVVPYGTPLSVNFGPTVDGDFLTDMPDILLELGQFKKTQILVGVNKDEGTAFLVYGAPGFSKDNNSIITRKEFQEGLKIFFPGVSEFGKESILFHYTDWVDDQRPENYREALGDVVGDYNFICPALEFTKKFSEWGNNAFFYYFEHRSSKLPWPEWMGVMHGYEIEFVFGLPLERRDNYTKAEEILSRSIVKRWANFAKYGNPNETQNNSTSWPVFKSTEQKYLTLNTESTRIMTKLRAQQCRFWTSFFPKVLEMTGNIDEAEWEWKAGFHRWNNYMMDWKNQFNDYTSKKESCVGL
T2 sequence (P22303 32-614): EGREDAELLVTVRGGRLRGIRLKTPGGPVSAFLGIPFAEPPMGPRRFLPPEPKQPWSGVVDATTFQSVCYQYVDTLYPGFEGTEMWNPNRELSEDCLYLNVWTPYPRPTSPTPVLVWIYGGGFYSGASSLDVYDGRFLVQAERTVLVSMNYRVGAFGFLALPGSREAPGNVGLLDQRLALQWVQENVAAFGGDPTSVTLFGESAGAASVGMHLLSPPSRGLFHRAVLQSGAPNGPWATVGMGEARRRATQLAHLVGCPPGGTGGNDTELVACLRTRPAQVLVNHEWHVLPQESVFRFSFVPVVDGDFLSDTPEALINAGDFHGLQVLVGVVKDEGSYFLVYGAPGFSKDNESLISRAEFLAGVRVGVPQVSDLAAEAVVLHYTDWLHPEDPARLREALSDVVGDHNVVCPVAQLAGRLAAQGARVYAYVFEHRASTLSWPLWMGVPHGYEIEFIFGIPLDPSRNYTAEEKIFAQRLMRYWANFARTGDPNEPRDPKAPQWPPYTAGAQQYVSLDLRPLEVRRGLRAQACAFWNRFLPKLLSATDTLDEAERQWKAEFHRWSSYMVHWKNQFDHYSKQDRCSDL

## Cc1ccc(-c2cn(Cc3ccc4ccccc4c3)nn2)cc1C(=O)NCCN1CCOCC1 [2-methyl-N-(2-morpholinoethyl)-5-(1-(naphthalen-2-ylmethyl)-1H-1,2,3-triazol-4-yl)benzamide]
BChE [1]; read-out: IC50 for BChE, previously reported triazole analog
  IC50: 90.76 ± 0.21 µM

## O=C1/C(=C\c2ccc(N3CCCC3)cc2)S/C(=N/N2CCOCC2)N1c1ccccc1 [(E)-2-(morpholinoimino)-3-phenyl-5-((E)-4-(pyrrolidin-1-yl)benzylidene)thiazolidin-4-one]
AChE [2]
  IC50: 17.4 ± 0.22 µM
BChE [1]; previously reported thiazolidinone analog, read-out: IC50 against BChE
  IC50: 24.4 ± 0.51 µM

## COc1cc(-c2nnc3[nH]ccn23)ccc1N1C(=O)CSC1c1ccc(F)cc1F (stereo not shown) [Analog 3]
AChE [3]
  IC50: 8.1 ± 0.4 µM
BChE [4]
  IC50: 8.5 ± 0.3 µM

## COc1cc(-c2nnc3[nH]ccn23)ccc1N1C(=O)CSC1c1ccc(C(F)(F)F)cc1 (stereo not shown) [Analog 10]
AChE [3]
  IC50: 6.7 ± 0.2 µM
BChE [4]
  IC50: 7.1 ± 0.1 µM
enzyme
  Mode of inhibition (enzyme kinetics): competitive inhibitor

## COc1cc(-c2nnc3[nH]ccn23)ccc1N1C(=O)CSC1c1ccc(F)cc1O (stereo not shown) [Analog 11]
AChE [3]
  IC50: 8.3 ± 0.2 µM
BChE [4]
  IC50: 8.6 ± 0.3 µM
